Reference: patent US20080009418A1, “Selective Inhibitors” (Alchemia LTD., priority 2004, published 2008)

Tests used:
[1] = molecular target: T1, Human melanocortin (MC5) (Homo sapiens, UniProt P33032); assay: Radioligand binding, human melanocortin MC5 membranes, FlashPlate, [125I]-NDP-αMSH; conditions: compound at 10 μM; for A5 radioligand binding inhibition: human melanocortin MC5 membranes; for A5: inhibition of radioligand binding, human melanocortin (MC5): [125I]-NDP-αMSH
T1 construct: purchased Perkin Elmer Biosignal
T1 sequence (P33032 whole entry): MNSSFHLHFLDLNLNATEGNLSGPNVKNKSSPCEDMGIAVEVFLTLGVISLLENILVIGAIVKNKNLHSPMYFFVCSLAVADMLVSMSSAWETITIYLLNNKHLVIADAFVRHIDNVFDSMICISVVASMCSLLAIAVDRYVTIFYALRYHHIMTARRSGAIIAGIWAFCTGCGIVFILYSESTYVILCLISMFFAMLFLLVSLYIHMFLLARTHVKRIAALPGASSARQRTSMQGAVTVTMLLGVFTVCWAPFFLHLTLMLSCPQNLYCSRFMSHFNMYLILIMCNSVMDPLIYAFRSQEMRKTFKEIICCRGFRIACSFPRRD
Experimental: (§1) Cloned receptor membrane preparations from Perkin Elmer Biosignal™ were used in radioligand binding assays.
(§2) A1 Human δ-opioid (DOP), A2 Human κ-Opioid (KOP), A3 Human Melanocortin (MC3), A4 Human Melanocortin (MC4), A5 Human melanocortin (MC5), A6 Human melanin-concentrating hormone (MCH1), A7 Human μ-opioid (MOP), A8 Human neurokinin (NK1), A9 Human neuropeptide Y (NPY-Y1), A10 Human opioid (ORL1) A11 Mouse urotensin (mUR2)
(§3) Screening experiments were performed in either a 50 μl filtration or 25 μl FlashPlate assay format using the following protocol:
(§4) 19.5 μl buffer, 0.5 μl of compound diluted in DMSO, 5 μl of radioligand diluted in binding buffer.
(§5) The day prior to performing the experiment 50 μl DMSO was added to each well of the compound plates to yield compounds at a final concentration of 10 mM. Daughter plates were then created by diluting the compounds further in DMSO to a concentration of 0.5 mM. The mother plates were frozen immediately.
(§6) Immobilize membranes into FlashPlate microplates using PerkinElmer BioSignal's proprietary coating procedure. Dilute radioligand to 5× the final concentration in binding buffer. Add 19.5 μl buffer to each well of the FlashPlate. Add 0.5 μl of DMSO (total value, 5 wells), reference ligand (non-specific value, 3 wells) or compound to the corresponding wells in the FlashPlate microplate. Initiate the reaction by adding 5 μl of radioligand to each well. Apply TopSeal-A onto FlashPlate microplates. Incubate at room temperature for 1 hour in the dark. Count for 30 seconds per well on TopCount Microplate Scintillation and Luminescence Counter (PerkinElmer) using a count delay of 60 seconds.
(§7) Percentage inhibition was calculated using the following formula: [formula]

[2] = molecular target: T2, Human μ-opioid (MOP) (Homo sapiens, UniProt P35372); assay: Radioligand binding, human μ-opioid (MOP) membranes, FlashPlate, [3H]-Naloxone; conditions: compound at 10 μM; for A7 radioligand binding inhibition: human μ-opioid (MOP) membranes; for A7: inhibition of radioligand binding, human μ-opioid (MOP): [3H]-Naloxone
T2 construct: purchased Perkin Elmer Biosignal
T2 sequence (P35372 whole entry): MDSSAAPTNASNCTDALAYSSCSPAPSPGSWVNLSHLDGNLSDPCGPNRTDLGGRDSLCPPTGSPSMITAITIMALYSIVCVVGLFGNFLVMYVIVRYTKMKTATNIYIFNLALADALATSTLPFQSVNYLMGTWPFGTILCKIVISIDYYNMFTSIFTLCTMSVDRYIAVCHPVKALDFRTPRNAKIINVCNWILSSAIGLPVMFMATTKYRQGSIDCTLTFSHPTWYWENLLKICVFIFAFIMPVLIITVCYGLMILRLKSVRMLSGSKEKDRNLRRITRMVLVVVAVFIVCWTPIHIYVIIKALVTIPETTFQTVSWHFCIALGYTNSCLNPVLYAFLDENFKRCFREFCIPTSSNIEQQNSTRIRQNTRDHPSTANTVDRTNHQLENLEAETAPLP
Experimental: as §1, §2, §3, §4, §5, §6, §7

[3] = molecular target: T3, Human Melanocortin (MC4) (Homo sapiens, UniProt P32245); assay: Radioligand binding, human melanocortin MC4 membranes, FlashPlate, [125I]-NDP-αMSH; conditions: compound at 10 μM; for A4 radioligand binding inhibition: human melanocortin MC4 membranes; for A4: inhibition of radioligand binding, human melanocortin (MC4): [125I]-NDP-αMSH
T3 construct: purchased Perkin Elmer Biosignal
T3 sequence (P32245 whole entry): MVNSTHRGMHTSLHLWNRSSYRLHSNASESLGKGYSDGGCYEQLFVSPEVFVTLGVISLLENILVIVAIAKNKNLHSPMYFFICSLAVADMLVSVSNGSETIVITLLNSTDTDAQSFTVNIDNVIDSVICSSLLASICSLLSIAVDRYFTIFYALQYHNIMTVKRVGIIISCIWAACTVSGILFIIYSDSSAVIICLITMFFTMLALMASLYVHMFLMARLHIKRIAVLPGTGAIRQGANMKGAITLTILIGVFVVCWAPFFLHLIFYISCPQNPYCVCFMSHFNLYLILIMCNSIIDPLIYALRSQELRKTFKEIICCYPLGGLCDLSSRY
Experimental: as §1, §2, §3, §4, §5, §6, §7

[4] = molecular target: T4, Human Melanocortin (MC3) (Homo sapiens, UniProt P41968); assay: Radioligand binding, human melanocortin MC3 membranes, FlashPlate, [125I]-NDP-αMSH; conditions: compound at 10 μM; for A3 radioligand binding inhibition: human melanocortin MC3 membranes; for A3: inhibition of radioligand binding, human melanocortin (MC3): [125I]-NDP-αMSH
T4 construct: purchased Perkin Elmer Biosignal
T4 sequence (P41968 whole entry): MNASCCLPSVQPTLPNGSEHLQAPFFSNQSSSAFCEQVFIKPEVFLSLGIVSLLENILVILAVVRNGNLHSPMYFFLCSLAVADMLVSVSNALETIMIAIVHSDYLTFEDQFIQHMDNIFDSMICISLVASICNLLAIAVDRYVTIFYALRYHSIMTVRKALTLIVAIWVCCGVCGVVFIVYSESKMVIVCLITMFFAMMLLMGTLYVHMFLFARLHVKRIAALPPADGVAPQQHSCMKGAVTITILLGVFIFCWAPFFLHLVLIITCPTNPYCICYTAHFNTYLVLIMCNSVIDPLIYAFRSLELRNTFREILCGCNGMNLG
Experimental: as §1, §2, §3, §4, §5, §6, §7

[5] = molecular target: T5, Human neuropeptide Y (NPY-Y1) (Homo sapiens, UniProt P25929); assay: Radioligand binding, human neuropeptide Y NPY-Y1 membranes, FlashPlate, [125I]-PYY; conditions: compound at 10 μM; for A9 radioligand binding inhibition: human NPY-Y1 membranes; for A9: inhibition of radioligand binding, human neuropeptide Y (NPY-Y1): [125I]-PYY
T5 construct: purchased Perkin Elmer Biosignal
T5 sequence (P25929 1-384): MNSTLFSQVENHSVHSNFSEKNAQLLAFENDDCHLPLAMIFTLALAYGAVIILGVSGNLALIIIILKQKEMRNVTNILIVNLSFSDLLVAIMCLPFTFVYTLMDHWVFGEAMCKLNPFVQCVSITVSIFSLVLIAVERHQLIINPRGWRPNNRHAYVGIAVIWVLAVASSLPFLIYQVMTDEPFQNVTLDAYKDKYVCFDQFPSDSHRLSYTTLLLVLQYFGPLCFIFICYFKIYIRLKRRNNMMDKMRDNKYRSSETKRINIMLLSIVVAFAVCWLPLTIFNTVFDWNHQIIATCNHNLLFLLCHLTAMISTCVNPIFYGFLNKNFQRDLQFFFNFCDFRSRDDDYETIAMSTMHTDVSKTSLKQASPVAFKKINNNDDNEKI
Experimental: as §1, §2, §3, §4, §5, §6, §7

[6] = molecular target: T6, Human κ-Opioid (KOP) (Homo sapiens, UniProt P41145); assay: Radioligand binding, human κ-opioid (KOP) membranes, filtration, [3H]-Diprenorphine; conditions: compound at 10 μM; for A2 radioligand binding inhibition: human κ-opioid (KOP) membranes; for A2: inhibition of radioligand binding, human κ-opioid (KOP): [3H]-Diprenorphine
T6 construct: purchased Perkin Elmer Biosignal
T6 sequence (P41145 whole entry): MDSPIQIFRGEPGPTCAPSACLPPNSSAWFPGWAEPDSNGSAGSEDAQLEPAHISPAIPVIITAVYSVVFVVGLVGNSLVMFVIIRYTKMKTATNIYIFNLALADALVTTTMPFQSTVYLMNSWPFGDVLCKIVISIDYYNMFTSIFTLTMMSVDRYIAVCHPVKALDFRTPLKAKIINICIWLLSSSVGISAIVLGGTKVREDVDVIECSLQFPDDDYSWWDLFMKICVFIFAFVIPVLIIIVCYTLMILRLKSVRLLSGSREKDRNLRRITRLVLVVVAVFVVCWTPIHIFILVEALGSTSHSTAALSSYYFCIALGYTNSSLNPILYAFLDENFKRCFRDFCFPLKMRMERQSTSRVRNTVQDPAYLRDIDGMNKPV
Experimental: as §1, §2, §3
(§8) 44 μl membranes diluted in buffer, 1 μl of compound diluted in DMSO, 5 μl of radioligand diluted in binding buffer.
as §5
(§9) Thaw membranes on ice then dilute membranes in binding buffer at a concentration of 1 Unit per well. Dilute radio-ligand to 10 times the final concentration in binding buffer. Add 44 μl of diluted membranes to each well of the deep-well plate. Add 1 μl of DMSO (total value, 5 wells), reference ligand (non-specific value, 3 wells) or compound to the corresponding wells in the deep-well plate. Initiate the reaction by adding 5 μl of radioligand to each well and vortex gently. Incubate at room temperature for 1 hour. During incubation, pre-incubate the Multiscreen Harvest plates in 0.3% PEI. Filter over pre-soaked Multiscreen Harvest plates using a Tomtec Harvester. Wash 9 times with 500 μl of cold 50 mM Tris-HCl pH 7.4 at 4° C. and air-dry for 30 minutes at room temperature under a fume hood. Apply a bottom seal to the Multiscreen Harvest plates. Add 25 μl of MicroScint-0 to each well. Apply TopSeal-A to the plate. Count for 30 seconds per well on TopCount Microplate Scintillation and Luminescence Counter (PerkinElmer) using a count delay of 60 seconds.
as §7

[7] = molecular target: T7, Mouse urotensin (mUR2) (Mus musculus, UniProt Q8VIH9); assay: Radioligand binding, mouse urotensin mUR2 membranes, FlashPlate, [125I]-Urotensin II; conditions: compound at 10 μM; for A11 radioligand binding inhibition: mouse urotensin mUR2 membranes; for A11: inhibition of radioligand binding, mouse urotensin (mUR2): [125I]-Urotensin II
T7 construct: purchased Perkin Elmer Biosignal
T7 sequence (Q8VIH9 1-385): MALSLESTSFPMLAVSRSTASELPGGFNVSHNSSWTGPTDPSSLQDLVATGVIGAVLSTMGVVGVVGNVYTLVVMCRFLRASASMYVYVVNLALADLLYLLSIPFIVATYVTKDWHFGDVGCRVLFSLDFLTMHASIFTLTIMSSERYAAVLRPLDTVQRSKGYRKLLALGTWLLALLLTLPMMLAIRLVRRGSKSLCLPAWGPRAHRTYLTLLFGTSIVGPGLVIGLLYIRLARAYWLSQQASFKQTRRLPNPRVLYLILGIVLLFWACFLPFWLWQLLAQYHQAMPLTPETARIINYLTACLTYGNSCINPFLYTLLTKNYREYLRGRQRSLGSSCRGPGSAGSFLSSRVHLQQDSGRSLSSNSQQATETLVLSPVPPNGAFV
Experimental: as §1, §2, §3, §4, §5, §6, §7

[8] = molecular target: T8, Human neurokinin (NK1) (Homo sapiens, UniProt P25103); assay: Radioligand binding, human neurokinin NK1 membranes, filtration, [125I]-Substance P; conditions: compound at 10 μM; for A8 radioligand binding inhibition: human neurokinin NK1 membranes; for A8: inhibition of radioligand binding, human neurokinin (NK1): [125I]-Substance P
T8 construct: purchased Perkin Elmer Biosignal
T8 sequence (P25103 whole entry): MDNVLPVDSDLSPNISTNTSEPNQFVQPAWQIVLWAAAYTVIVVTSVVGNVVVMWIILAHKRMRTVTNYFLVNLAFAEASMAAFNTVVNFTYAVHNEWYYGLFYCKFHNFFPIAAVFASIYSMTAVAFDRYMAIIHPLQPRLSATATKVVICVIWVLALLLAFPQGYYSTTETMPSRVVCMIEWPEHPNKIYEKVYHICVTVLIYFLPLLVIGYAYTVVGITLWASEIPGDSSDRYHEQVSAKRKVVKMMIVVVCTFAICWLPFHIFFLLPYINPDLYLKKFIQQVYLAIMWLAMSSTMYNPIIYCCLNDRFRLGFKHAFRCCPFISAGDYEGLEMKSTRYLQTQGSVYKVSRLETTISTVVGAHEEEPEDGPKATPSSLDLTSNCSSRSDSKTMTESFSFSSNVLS
Experimental: as §1, §2, §3, §8, §5, §9, §7

[9] = molecular target: T9, Human δ-opioid (DOP) (Homo sapiens, UniProt P41143); assay: Radioligand binding, human δ-opioid (DOP) membranes, FlashPlate, [3H]-Bremazocine; conditions: compound at 10 μM; for A1 radioligand binding inhibition: human δ-opioid (DOP) membranes; for A1: inhibition of radioligand binding, human δ-opioid (DOP): [3H]-Bremazocine
T9 construct: purchased Perkin Elmer Biosignal
T9 sequence (P41143 whole entry): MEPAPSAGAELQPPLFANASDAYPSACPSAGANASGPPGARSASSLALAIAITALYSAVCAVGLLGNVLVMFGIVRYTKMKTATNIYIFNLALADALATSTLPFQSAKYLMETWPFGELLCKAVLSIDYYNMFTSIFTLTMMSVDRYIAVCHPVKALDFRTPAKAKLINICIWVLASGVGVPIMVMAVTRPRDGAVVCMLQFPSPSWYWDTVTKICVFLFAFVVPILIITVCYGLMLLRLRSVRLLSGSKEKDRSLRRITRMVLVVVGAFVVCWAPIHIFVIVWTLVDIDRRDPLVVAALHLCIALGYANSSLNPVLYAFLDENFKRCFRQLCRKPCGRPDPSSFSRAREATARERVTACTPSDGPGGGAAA
Experimental: as §1, §2, §3, §4, §5, §6, §7

[10] = molecular target: T10, Human melanin-concentrating hormone (MCH1) (Homo sapiens, UniProt Q99705); assay: Radioligand binding, human melanin-concentrating hormone MCH1 membranes, FlashPlate, [125I]-S36057; conditions: compound at 10 μM; for A6 radioligand binding inhibition: human MCH1 membranes; for A6: inhibition of radioligand binding, human melanin-concentrating hormone (MCH1): [125I]-S36057
T10 construct: purchased Perkin Elmer Biosignal
T10 sequence (Q99705 whole entry): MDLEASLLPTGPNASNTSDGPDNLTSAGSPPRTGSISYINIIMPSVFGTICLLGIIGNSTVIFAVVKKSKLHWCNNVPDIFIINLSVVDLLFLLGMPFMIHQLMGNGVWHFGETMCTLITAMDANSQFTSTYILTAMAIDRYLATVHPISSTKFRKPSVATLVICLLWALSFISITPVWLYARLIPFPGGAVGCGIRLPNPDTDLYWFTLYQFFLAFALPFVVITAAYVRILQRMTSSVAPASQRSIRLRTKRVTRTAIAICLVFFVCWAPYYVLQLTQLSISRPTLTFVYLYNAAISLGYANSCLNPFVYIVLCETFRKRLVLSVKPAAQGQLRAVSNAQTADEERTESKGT
Experimental: as §1, §2, §3, §4, §5, §6, §7

[11] = molecular target: T11, Human opioid (ORL1) (Homo sapiens, UniProt P41146); assay: Radioligand binding, human opioid ORL1 membranes, FlashPlate, [125I]-Nociceptin; conditions: compound at 10 μM; for A10 radioligand binding inhibition: human ORL1 membranes; for A10: inhibition of radioligand binding, human opioid (ORL1): [125I]-Nociceptin
T11 construct: purchased Perkin Elmer Biosignal
T11 sequence (P41146 whole entry): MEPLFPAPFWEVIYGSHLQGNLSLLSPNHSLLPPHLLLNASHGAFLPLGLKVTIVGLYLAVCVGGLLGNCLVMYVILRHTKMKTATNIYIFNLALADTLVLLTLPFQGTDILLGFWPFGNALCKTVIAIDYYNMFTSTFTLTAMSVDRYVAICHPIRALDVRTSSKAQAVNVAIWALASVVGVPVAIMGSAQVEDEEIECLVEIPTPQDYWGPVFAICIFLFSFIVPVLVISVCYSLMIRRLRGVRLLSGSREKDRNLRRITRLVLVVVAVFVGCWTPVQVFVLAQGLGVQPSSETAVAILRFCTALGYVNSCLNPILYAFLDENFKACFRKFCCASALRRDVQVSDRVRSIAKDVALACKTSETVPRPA
Experimental: as §1, §2, §3, §4, §5, §6, §7

Row | Structure (SMILES) | A5 radioligand binding inhibition [1] | A7 radioligand binding inhibition [2] | A4 radioligand binding inhibition [3] | A3 radioligand binding inhibition [4] | A9 radioligand binding inhibition [5] | A2 radioligand binding inhibition [6] | A11 radioligand binding inhibition [7] | A8 radioligand binding inhibition [8] | A1 radioligand binding inhibition [9] | A6 radioligand binding inhibition [10] | A10 radioligand binding inhibition [11] | A5: inhibition of radioligand binding, human melanocortin (MC5) [1] | A4: inhibition of radioligand binding, human melanocortin (MC4) [3] | A3: inhibition of radioligand binding, human melanocortin (MC3) [4] | A9: inhibition of radioligand binding, human neuropeptide Y (NPY-Y1) [5] | A2: inhibition of radioligand binding, human κ-opioid (KOP) [6] | A11: inhibition of radioligand binding, mouse urotensin (mUR2) [7] | A8: inhibition of radioligand binding, human neurokinin (NK1) [8] | A6: inhibition of radioligand binding, human melanin-concentrating hormone (MCH1) [10] | A10: inhibition of radioligand binding, human opioid (ORL1) [11] | also measured
1 | CO[C@H]1[C@H](O)[C@@H](COCc2ccccc2)OC(OCc2ccc(-c3ccccc3)cc2)[C@@H]1NC(=O)CCNC(=N)N (some centres unmarked) [compound 59] | + (“+” indicates greater than 50% inhibition at 10 μM) | + (“+” indicates greater than 50% inhibition at 10 μM) | − (“−” indicates less than 50% inhibition at 10 μM) | − (“−” indicates less than 50% inhibition at 10 μM) | − (“−” indicates less than 50% inhibition at 10 μM) | + (“+” indicates greater than 50% inhibition at 10 μM) | − (“−” indicates less than 50% inhibition at 10 μM) | + (“+” indicates greater than 50% inhibition at 10 μM) | − (“−” indicates less than 50% inhibition at 10 μM) | − (“−” indicates less than 50% inhibition at 10 μM) | − (“−” indicates less than 50% inhibition at 10 μM) |  |  |  |  |  |  |  |  |  | 
2 | CO[C@H]1[C@H](O)[C@@H](COCc2ccc3ccccc3c2)OC(OCc2ccccc2)[C@@H]1NC(=O)CNC(=N)N (some centres unmarked) [compound 86] | + (“+” indicates greater than 50% inhibition at 10 μM) | + (“+” indicates greater than 50% inhibition at 10 μM) | + (“+” indicates greater than 50% inhibition at 10 μM) | + (“+” indicates greater than 50% inhibition at 10 μM) | − (“−” indicates less than 50% inhibition at 10 μM) | − (“−” indicates less than 50% inhibition at 10 μM) | − (“−” indicates less than 50% inhibition at 10 μM) | + (“+” indicates greater than 50% inhibition at 10 μM) | − (“−” indicates less than 50% inhibition at 10 μM) | − (“−” indicates less than 50% inhibition at 10 μM) | − (“−” indicates less than 50% inhibition at 10 μM) |  |  |  |  |  |  |  |  |  | 
3 | NCCC(=O)NC1COC(COCc2ccc(-c3ccccc3)cc2)C(O)C1OCc1ccc(Cl)cc1 (centres unmarked) [compound 544] |  |  |  |  |  |  |  |  |  |  |  | − (“−” indicates less than 50% inhibition at 10 μM) | − (“−” indicates less than 50% inhibition at 10 μM) | + (“+” indicates greater than 50% inhibition at 10 μM) | − (“−” indicates less than 50% inhibition at 10 μM) | + (“+” indicates greater than 50% inhibition at 10 μM) | − (“−” indicates less than 50% inhibition at 10 μM) | + (“+” indicates greater than 50% inhibition at 10 μM) | − (“−” indicates less than 50% inhibition at 10 μM) | − (“−” indicates less than 50% inhibition at 10 μM) | A7: inhibition of radioligand binding, human μ-opioid (MOP) [2]: − (“−” indicates less than 50% inhibition at 10 μM); A1: inhibition of radioligand binding, human δ-opioid (DOP) [9]: − (“−” indicates less than 50% inhibition at 10 μM)
4 | N=C(N)NCCC(=O)N[C@H]1C(OCc2ccc(Cl)cc2)O[C@H](COCc2ccccc2)[C@@H](O)[C@@H]1OCc1ccc(-c2ccccc2)cc1 (some centres unmarked) [compound 536] |  |  |  |  |  |  |  |  |  |  |  | + (“+” indicates greater than 50% inhibition at 10 μM) | + (“+” indicates greater than 50% inhibition at 10 μM) | + (“+” indicates greater than 50% inhibition at 10 μM) | − (“−” indicates less than 50% inhibition at 10 μM) | + (“+” indicates greater than 50% inhibition at 10 μM) | − (“−” indicates less than 50% inhibition at 10 μM) | + (“+” indicates greater than 50% inhibition at 10 μM) | + (“+” indicates greater than 50% inhibition at 10 μM) | − (“−” indicates less than 50% inhibition at 10 μM) | A7: inhibition of radioligand binding, human μ-opioid (MOP) ([2]; 10 µM): − (“−” indicates less than 50% inhibition at 10 μM); A1: inhibition of radioligand binding, human δ-opioid (DOP) ([9]; 10 µM): − (“−” indicates less than 50% inhibition at 10 μM)
